Some results are limits rather than exact numbers.

In one assay the target is T1, human CB1 receptor (Homo sapiens, UniProt P21554).
T1 construct: expressed in transfected cells; host or cells: human embryonic kidney (HEK) cells, Semliki Forest Virus system, membrane preparation
Briefly: CB1 receptor affinity ([3H]-CP-55,940 displacement, HEK cell membranes). It is filed as binding. The note with it: displacement of [3H]-CP-55,940 at 10 μM. How it is done:
(§1) CB1 and CB2 Receptor Affinity
(§2) The affinity of the compounds of the invention for cannabinoid receptors was determined using membrane preparations of human embryonic kidney (HEK) cells in which the human CB1 receptor is transiently transfected using a Semliki Forest Virus system in conjunction with [3H]-CP-55,940 as radioligand. After incubation of freshly prepared cell membrane preparation with the [^3H]-ligand, with or without addition of compounds of the invention, separation of bound and free ligand was performed by filtration over glass fiber filters. Radioactivity on the filter was measured by scintillation counting.
(§3) The ability of the compounds to displace the radioligand [^3H]-CP-55,940 was measured at a concentration of 10 μM and values provided as [% inhibition @ 10 μM] both for the CB1 and CB2 receptor assay, The lower % inhibition is, the lower the likelihood of side effects based on CB1 or CB2 receptor inhibition is.
In general terms: Displacement assays read how much labelled ligand stays bound in the presence of the test substance.

The next assay addresses T2, human CB2 receptor (Homo sapiens, UniProt P34972).
T2 construct: expressed in transfected cells; host or cells: human embryonic kidney (HEK) cells, Semliki Forest Virus system, membrane preparation
Put plainly: CB2 receptor affinity ([3H]-CP-55,940 displacement, HEK cell membranes). Type of assay: binding. The following applies: displacement of [3H]-CP-55,940 at 10 μM. How it is done:
as §1
as §2, with “cannabinoid CB2” for “cannabinoid”, “CB2” for “CB1”, “[^3H]-CP-55,940” for “[3H]-CP-55,940”
as §3

The next assay concerns ABCA1 protein. Briefly: Detection of upregulation of ABCA1 protein in cells (ApoA-I binding, high content image analysis). It is filed as cell-based. The following applies: THP-1 macrophage cells; for % increase of ABCA1 at 3 μM: compound at 3 μM, 24 hrs; for EC50: ABCA1 protein increasing efficacy. How it is done:
Detection of Upregulation of ABCA1 Protein in Cells
The ability of compounds of the invention to increase the level of ABCA1 protein is determined in replicate cultures of THP-1 macrophage cells in 96-well microplates. Cells are plated at an initial density of 100,000 cells/well in 100 μl medium and differentiated to adherent macrophages with the addition of PMA (100 nM) for 68 hrs in 10% fetal bovine serum, 3 μl/L of b-mercaptoethanol, RPMI-1640 medium. Then, cells are incubated with RPMI-1640 medium containing 1% FCS, 25 μg/ml acetylated LDL, for 24 hours at 37° C. Following incubation with acetylated LDL, cells are washed twice with 50 μl PBS and incubated with 100 μl of RPMI-1640 medium containing the compound of interest solubilized in DMSO for an additional 24 hrs. The final DMSO concentration in presence of cells is maintained at 0.5%. ApoA-I binding assay using High Content Image Analysis is initiated by replacing with fresh medium, RPMI without Phenol Red, 0.2% BSA containing AlexaFluor®647 labeled ApoA-I for 2 h/37° C./5% CO2. Then, cells are fixed with 4% Formaldehyde in PBS (15 min, RT). Following Nuclei are stained with Hoechst solution (3 μM PBS) and Cytoplasm with Cell Mask Blue (2 μg/ml PBS), 15 min, RT. Finally the stained cells are fixed with a second round of formaldehyde treatment. Fixed stained cells are washed and kept in PBS at 4° C. and can be read immediately until one month after preparation.
The Alexa Fluor 647-labeled Apolipoprotein A-I (20 nM) was prepared as follows: Human recombinant Apolipoprotein A-I (ApoA-I) was exchanged to a buffer of 0.02 M NaHCO3 at pH 8.2 on an NAP desalting column (GE Healthcare) and brought to a concentration to 40 μM (1.13 mg/ml) by adjustment with the same buffer. The ApoA-I was fluorescently labeled by incubation with Alexa Fluor carboxylic acid succimidyl ester (Alexa Fluor 647, Invitrogen A-20006) at a 2:1 molar ratio (Alexa to ApoA-I) for 1 h under shaking at RT. The remaining unconjugated label was removed by buffer exchange to 0.02M NaHCO3 at pH 8.2.
Imaging and data collection were performed on an OPERA confocal microplate imaging reader using a 20× water immersion objective and UV360 or 405 laser to identify the cell nuclei and a 635 laser to identify the fluorescent ApoA-I. Eight fields of view are captured per well. Image capture and analysis was performed with the Acapella software. Background fluorescence detected in control wells without ApoA-I was subtracted.
Using XLfit3 program (ID Business Solutions Ltd. UK), the model 205 for Dose Response One Site is used to calculate the EC50 values. […] Particularly, the compounds of the present invention have EC50 values in a range of 0.1 μM to 3 μm.

T1 sequence (P21554 whole entry): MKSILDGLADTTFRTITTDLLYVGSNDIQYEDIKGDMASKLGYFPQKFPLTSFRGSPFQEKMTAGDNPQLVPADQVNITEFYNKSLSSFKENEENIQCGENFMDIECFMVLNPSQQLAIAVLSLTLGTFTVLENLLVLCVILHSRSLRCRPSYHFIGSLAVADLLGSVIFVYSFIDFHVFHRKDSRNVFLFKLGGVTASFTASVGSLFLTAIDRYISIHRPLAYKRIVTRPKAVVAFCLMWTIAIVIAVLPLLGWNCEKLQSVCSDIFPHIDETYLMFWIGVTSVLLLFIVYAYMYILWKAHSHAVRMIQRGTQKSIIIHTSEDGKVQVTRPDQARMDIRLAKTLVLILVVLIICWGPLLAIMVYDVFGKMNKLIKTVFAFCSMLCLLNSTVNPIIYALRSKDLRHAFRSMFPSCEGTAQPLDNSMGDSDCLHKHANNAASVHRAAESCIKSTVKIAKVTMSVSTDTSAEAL
T2 sequence (P34972 whole entry): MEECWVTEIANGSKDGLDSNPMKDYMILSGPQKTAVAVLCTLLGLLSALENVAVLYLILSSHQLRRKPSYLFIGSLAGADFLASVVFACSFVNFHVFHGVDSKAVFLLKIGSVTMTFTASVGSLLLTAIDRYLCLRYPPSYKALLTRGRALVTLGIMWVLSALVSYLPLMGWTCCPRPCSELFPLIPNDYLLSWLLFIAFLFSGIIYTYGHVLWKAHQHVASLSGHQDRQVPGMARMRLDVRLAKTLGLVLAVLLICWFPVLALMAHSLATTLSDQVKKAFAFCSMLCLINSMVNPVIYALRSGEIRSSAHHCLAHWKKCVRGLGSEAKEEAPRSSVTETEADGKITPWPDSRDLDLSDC

On to `O=C(Nc1ccncn1)c1cnc(OCC(F)(F)F)c(C2CCCC2)c1` [Example 23, 5-cyclopentyl-N-pyrimidin-4-yl-6-(2,2,2-trifluoro-ethoxy)-nicotinamide], for which, at human CB1 receptor, the “CB1 receptor affinity [% inhibition @ 10 μM]” value was 31 % inhibition. Further, on human CB2 receptor, the “CB2 receptor affinity [% inhibition @ 10 μM]” value was −3 % inhibition. In addition, the “% increase of ABCA1 at 3 μM” value in the assay with ABCA1 protein is over 45% @ 3 μM.
Consider `O=C(NCc1nc(C(F)(F)F)no1)c1cnc(OCC(F)(F)F)c(C2=CCOCC2)c1` [Example 5, 5-(3,6-dihydro-2H-pyran-4-yl)-6-(2,2,2-trifluoro-ethoxy)-N-(3-trifluoromethyl-[1,2,4]oxadiazol-5-ylmethyl)-nicotinamide], for which the “CB1 receptor affinity [% inhibition @ 10 μM]” value at human CB1 receptor was 15 % inhibition. In addition, on human CB2 receptor, the “CB2 receptor affinity [% inhibition @ 10 μM]” value is recorded as −2 % inhibition. In the assay with ABCA1 protein, this compound yielded a concentration for a half-maximal effect (EC50) of 2920 nM.
With `O=C(NCc1ccn(CC2CC2)n1)c1cnc(OCC(F)(F)F)c(C2CCCC2)c1` [Example 17, 5-cyclopentyl-N-(1-cyclopropylmethyl-1H-pyrazol-3-ylmethyl)-6-(2,2,2-trifluoro-ethoxy)-nicotinamide], the “CB1 receptor affinity [% inhibition @ 10 μM]” value on human CB1 receptor was 25 % inhibition. Also, on human CB2 receptor, the “CB2 receptor affinity [% inhibition @ 10 μM]” value is on record as 9 % inhibition. Further, in the assay with ABCA1 protein, the “% increase of ABCA1 at 3 μM” value is reported as over 45% @ 3 μM.
Turning to `O=C(Nc1cncnc1)c1cnc(OCC(F)(F)F)c(C2CCCC2)c1` [Example 22, 5-cyclopentyl-N-pyrimidin-5-yl-6-(2,2,2-trifluoro-ethoxy)-nicotinamide], at human CB1 receptor, the “CB1 receptor affinity [% inhibition @ 10 μM]” value came out at 12 % inhibition. Moreover, the “CB2 receptor affinity [% inhibition @ 10 μM]” value on human CB2 receptor was −11 % inhibition. The “% increase of ABCA1 at 3 μM” value with ABCA1 protein is listed as over 45% @ 3 μM.
Take `Cc1noc(CNC(=O)c2cnc(OCC(F)(F)F)c(C3CCCCC3)c2)n1` [Example 14, 5-cyclohexyl-N-(3-methyl-[1,2,4]oxadiazol-5-ylmethyl)-6-(2,2,2-trifluoro-ethoxy)-nicotinamide]: the “CB1 receptor affinity [% inhibition @ 10 μM]” value on human CB1 receptor was determined as 34 % inhibition. In addition, the “CB2 receptor affinity [% inhibition @ 10 μM]” value at human CB2 receptor came to 3 % inhibition. Further, in the assay on ABCA1 protein, the “% increase of ABCA1 at 3 μM” value was over 45% @ 3 μM.
In the case of `O=C(Nc1cncnc1)c1cnc(OCC(F)(F)F)c(C2CCCCC2)c1` [Example 19, 5-cyclohexyl-N-pyrimidin-5-yl-6-(2,2,2-trifluoro-ethoxy)-nicotinamide], the “CB1 receptor affinity [% inhibition @ 10 μM]” value at human CB1 receptor is 20 % inhibition. Besides, the “CB2 receptor affinity [% inhibition @ 10 μM]” value at human CB2 receptor is −11 % inhibition. In addition, in the assay on ABCA1 protein, the “% increase of ABCA1 at 3 μM” value is recorded as over 45% @ 3 μM.
The corresponding values for `O=C(Nc1cccnc1)c1cnc(OCC(F)(F)F)c(C2CCCC2)c1` [Example 8, 5-cyclopentyl-N-pyridin-3-yl-6-(2,2,2-trifluoro-ethoxy)-nicotinamide] are 49 % inhibition, 13 % inhibition and over 45% @ 3 μM.
Taken in the same sequence, the figures for `COc1cc(CNC(=O)c2cnc(OCC(F)(F)F)c(C3CCCC3)c2)on1` [Example 12, 5-cyclopentyl-N-(3-methoxy-isoxazol-5-ylmethyl)-6-(2,2,2-trifluoro-ethoxy)-nicotinamide] were 29 % inhibition, 12 % inhibition and over 45% @ 3 μM.
`O=C(NCc1csc(C2CC2)n1)c1cnc(OCC(F)(F)F)c(C2CCCC2)c1` [Example 18, 5-cyclopentyl-N-(2-cyclopropyl-thiazol-4-ylmethyl)-6-(2,2,2-trifluoro-ethoxy)-nicotinamide]: the “CB1 receptor affinity [% inhibition @ 10 μM]” value on human CB1 receptor amounted to 17 % inhibition. The “CB2 receptor affinity [% inhibition @ 10 μM]” value on human CB2 receptor came out at 14 % inhibition. In addition, in the assay on ABCA1 protein, the “% increase of ABCA1 at 3 μM” value is given as over 45% @ 3 μM.
`O=C(NCc1csc(C2CC2)n1)c1cnc(OCC(F)(F)F)c(C2CCCCC2)c1` [Example 16, 5-cyclohexyl-N-(2-cyclopropyl-thiazol-4-ylmethyl)-6-(2,2,2-trifluoro-ethoxy)-nicotinamide]: the “CB1 receptor affinity [% inhibition @ 10 μM]” value on human CB1 receptor turned out to be 25 % inhibition. Also, the “CB2 receptor affinity [% inhibition @ 10 μM]” value at human CB2 receptor is on record as 5 % inhibition. Further, in the assay on ABCA1 protein, the “% increase of ABCA1 at 3 μM” value is over 45% @ 3 μM.
Consider `O=C(Nc1ccnnc1)c1cnc(OCC(F)(F)F)c(C2CCCC2)c1` [Example 26, 5-cyclopentyl-N-pyridazin-4-yl-6-(2,2,2-trifluoro-ethoxy)-nicotinamide], for which the “CB1 receptor affinity [% inhibition @ 10 μM]” value on human CB1 receptor is 24 % inhibition. Besides, the “CB2 receptor affinity [% inhibition @ 10 μM]” value at human CB2 receptor is given as −2 % inhibition. The “% increase of ABCA1 at 3 μM” value in the assay on ABCA1 protein is given as over 45% @ 3 μM.
For the compound `O=C(Nc1cccnc1)c1cnc(OCC(F)(F)F)c(C2CCCCC2)c1` [Example 6, 5-cyclohexyl-N-pyridin-3-yl-6-(2,2,2-trifluoro-ethoxy)-nicotinamide], the “CB1 receptor affinity [% inhibition @ 10 μM]” value on human CB1 receptor came out at 17 % inhibition. The “CB2 receptor affinity [% inhibition @ 10 μM]” value at human CB2 receptor turned out to be 2 % inhibition. In the assay with ABCA1 protein, this compound returned a 50% effective concentration (EC50) of 3390 nM.
For the compound `O=C(Nc1cccnc1)c1cnc(OCC(F)(F)F)c(C2=CCCC2)c1` [Example 7, 5-cyclopent-1-enyl-N-pyridin-3-yl-6-(2,2,2-trifluoro-ethoxy)-nicotinamide], the “CB1 receptor affinity [% inhibition @ 10 μM]” value at human CB1 receptor was found to be 11 % inhibition. Moreover, the “CB2 receptor affinity [% inhibition @ 10 μM]” value at human CB2 receptor was 3 % inhibition. In addition, the “% increase of ABCA1 at 3 μM” value in the assay on ABCA1 protein was over 45% @ 3 μM.
With `CCN(C(=O)c1cnc(OCC(F)(F)F)c(C2=CCCCC2)c1)C(C)C` [Example 2, 5-cyclohex-1-enyl-N-ethyl-N-isopropyl-6-(2,2,2-trifluoro-ethoxy)-nicotinamide], the “CB1 receptor affinity [% inhibition @ 10 μM]” value on human CB1 receptor worked out at 37 % inhibition. The “CB2 receptor affinity [% inhibition @ 10 μM]” value at human CB2 receptor came to 3 % inhibition. For the same compound, in the assay with ABCA1 protein, the “% increase of ABCA1 at 3 μM” value was over 45% @ 3 μM.
Turning to `COc1cc(CNC(=O)c2cnc(OCC(F)(F)F)c(C3CCCCC3)c2)on1` [Example 13, 5-cyclohexyl-N-(3-methoxy-isoxazol-5-ylmethyl)-6-(2,2,2-trifluoro-ethoxy)-nicotinamide], the “CB1 receptor affinity [% inhibition @ 10 μM]” value on human CB1 receptor came out at 45 % inhibition. In addition, at human CB2 receptor, the “CB2 receptor affinity [% inhibition @ 10 μM]” value is given as 5 % inhibition. Also, the “% increase of ABCA1 at 3 μM” value with ABCA1 protein is recorded as over 45% @ 3 μM.
With `O=C(NCc1nc(C(F)(F)F)no1)c1cnc(OCC(F)(F)F)c(C2CCCCC2)c1` [Example 4, 5-cyclohexyl-6-(2,2,2-trifluoro-ethoxy)-N-(3-trifluoromethyl-[1,2,4]oxadiazol-5-ylmethyl)-nicotinamide], the “CB1 receptor affinity [% inhibition @ 10 μM]” value on human CB1 receptor came out at 31 % inhibition. Besides, on human CB2 receptor, the “CB2 receptor affinity [% inhibition @ 10 μM]” value amounted to 2 % inhibition. In the assay on ABCA1 protein, this compound registered a concentration giving a half-maximal response (EC50) of 150 nM.
Take `O=C(Nc1cnccn1)c1cnc(OCC(F)(F)F)c(C2CCCCC2)c1` [Example 27, 5-cyclohexyl-N-pyrazin-2-yl-6-(2,2,2-trifluoro-ethoxy)-nicotinamide]: the “CB1 receptor affinity [% inhibition @ 10 μM]” value on human CB1 receptor was determined as 18 % inhibition. At human CB2 receptor, the “CB2 receptor affinity [% inhibition @ 10 μM]” value was 11 % inhibition. The “% increase of ABCA1 at 3 μM” value in the assay with ABCA1 protein is reported as over 45% @ 3 μM.

What is called EC50 is the midpoint of the concentration-response curve.

Source of the values: patent US8629166B2, “5-cycloalkyl- or 5-heterocyclyl-nicotinamides” (Hoffmann-La Roche Inc., priority 2011, dated 2014).
